Experimental data published in ChEMBL document CHEMBL3751673, “Illuminating the binding interactions of galactonoamidines during the inhibition of β-galactosidase (E. coli)” (Bioorg Med Chem, 2016).

Each compound was assayed against Beta-galactosidase (Escherichia coli, UniProt Q8VNN2) (assay: Competitive inhibition of Escherichia coli beta-galactosidase assessed as p-nitrophenyl-beta-D-galactopyranoside substrate hydrolysis by UV/Vis spectroscopy).
Sequence of Beta-galactosidase (Q8VNN2 whole entry): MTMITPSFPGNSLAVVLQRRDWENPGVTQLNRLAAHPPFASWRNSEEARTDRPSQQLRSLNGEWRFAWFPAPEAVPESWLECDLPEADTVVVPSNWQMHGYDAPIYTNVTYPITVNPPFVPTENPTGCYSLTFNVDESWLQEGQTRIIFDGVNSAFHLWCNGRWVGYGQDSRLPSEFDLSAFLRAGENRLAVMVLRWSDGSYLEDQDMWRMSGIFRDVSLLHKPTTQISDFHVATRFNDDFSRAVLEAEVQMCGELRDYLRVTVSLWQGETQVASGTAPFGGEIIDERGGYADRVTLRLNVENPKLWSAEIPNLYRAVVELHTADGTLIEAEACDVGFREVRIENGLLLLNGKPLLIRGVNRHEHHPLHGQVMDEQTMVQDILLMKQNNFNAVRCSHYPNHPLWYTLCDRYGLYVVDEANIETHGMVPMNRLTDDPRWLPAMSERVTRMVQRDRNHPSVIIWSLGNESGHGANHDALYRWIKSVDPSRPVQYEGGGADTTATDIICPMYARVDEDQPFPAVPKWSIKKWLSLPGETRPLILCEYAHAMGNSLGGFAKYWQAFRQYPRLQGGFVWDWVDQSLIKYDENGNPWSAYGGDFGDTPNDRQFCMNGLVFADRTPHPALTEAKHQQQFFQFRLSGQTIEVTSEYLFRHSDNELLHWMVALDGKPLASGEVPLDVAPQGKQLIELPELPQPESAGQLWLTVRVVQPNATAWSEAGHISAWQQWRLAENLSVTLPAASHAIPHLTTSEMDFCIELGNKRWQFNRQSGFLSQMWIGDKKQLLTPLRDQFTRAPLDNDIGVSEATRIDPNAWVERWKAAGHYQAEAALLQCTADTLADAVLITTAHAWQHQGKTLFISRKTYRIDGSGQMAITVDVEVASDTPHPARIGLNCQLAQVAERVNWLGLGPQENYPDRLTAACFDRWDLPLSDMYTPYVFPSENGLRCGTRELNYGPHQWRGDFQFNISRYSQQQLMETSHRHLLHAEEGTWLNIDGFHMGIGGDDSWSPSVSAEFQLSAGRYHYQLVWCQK
`Cc1ccc(C/N=C2\N[C@H](CO)[C@H](O)[C@H](O)[C@H]2O)cc1` was tested, and the Ki was 0.06 nM. `Cc1ccc(CNC2=N[C@H](CO)[C@H](O)[C@H](O)C2)cc1` was tested, and the Ki was 1.3 nM. `CO[C@@H]1[C@H](O)[C@@H](O)C(NCc2ccc(C)cc2)=N[C@@H]1CO` gave a Ki of 32 nM. With `CO[C@H]1C(NCc2ccc(C)cc2)=N[C@H](CO)[C@H](O)[C@@H]1O` the Ki was 42 nM.
